Assay results as given in PMC10250256, “A radiohybrid theranostics ligand labeled with fluorine-18 and lutetium-177 for fibroblast activation protein-targeted imaging and radionuclide therapy” (European Journal of Nuclear Medicine and Molecular Imaging, 2023).
“And” between values parts separate entries of the source, which are not always exact repeats. Identical values can stand only once. “Also recorded” adds a separate entry of the source. Like-named read-outs stand apart in the source and are kept apart here.

How the values were obtained:
FAP = biological target: T1, FAP (Homo sapiens, UniProt Q12884); experiment: competitive FAP binding assay against [^177Lu]Lu-FAPI-04 in HT-1080-FAP cells
T1 construct: expressed in transfected cells; host or cells: HT-1080 human fibrosarcoma cells (HT-1080-FAP)
T1 sequence (Q12884 1-760): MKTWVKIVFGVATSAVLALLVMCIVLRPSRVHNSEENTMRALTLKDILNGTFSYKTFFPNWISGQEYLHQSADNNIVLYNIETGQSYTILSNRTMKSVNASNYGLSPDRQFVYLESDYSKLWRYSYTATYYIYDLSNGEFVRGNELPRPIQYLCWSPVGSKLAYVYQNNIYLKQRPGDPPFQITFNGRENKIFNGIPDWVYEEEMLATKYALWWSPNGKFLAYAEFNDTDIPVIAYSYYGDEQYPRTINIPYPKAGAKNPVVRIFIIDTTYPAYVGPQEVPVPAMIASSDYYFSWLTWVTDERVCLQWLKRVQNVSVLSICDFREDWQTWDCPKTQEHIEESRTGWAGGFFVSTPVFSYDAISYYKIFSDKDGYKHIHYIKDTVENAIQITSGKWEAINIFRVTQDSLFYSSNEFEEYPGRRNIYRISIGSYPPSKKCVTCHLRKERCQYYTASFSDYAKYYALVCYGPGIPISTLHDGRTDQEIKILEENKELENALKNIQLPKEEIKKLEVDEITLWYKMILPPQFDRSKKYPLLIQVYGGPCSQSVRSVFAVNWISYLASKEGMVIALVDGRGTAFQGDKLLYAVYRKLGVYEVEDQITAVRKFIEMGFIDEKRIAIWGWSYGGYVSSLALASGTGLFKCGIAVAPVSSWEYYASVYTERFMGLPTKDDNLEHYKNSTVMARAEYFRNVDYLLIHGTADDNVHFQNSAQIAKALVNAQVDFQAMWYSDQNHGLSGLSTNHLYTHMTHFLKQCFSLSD

HT-1080-FAP tumor slide = biological target: T2, HT-1080-FAP tumor slide (Homo sapiens, UniProt Q12884); experiment: in vitro autoradiography of HT-1080-FAP tumor slides; conditions: unlabeled 20 at 130 μM
T2 construct: from tissue; host or cells: slides of HT-1080-FAP xenograft tumor (transfected human fibrosarcoma cells grown subcutaneously in BALB/C-nu/nu mice)
T2 sequence (Q12884 1-760): T1 sequence (Q12884 1-760)
Method: The slides of HT-1080-FAP tumor were incubated with [^18F]21 for 1 h, exposed on a phosphoscreen, and subsequently scanned on a Beckman Coulter FLA7000IP Typhoon storage phosphorimager. Immunohistochemical staining of FAP was performed on the adjacent section.

[1] = in vitro stability in PBS or murine serum (radio-HPLC); type: in vitro ADME
Method: (§1) [^18F]21 or [^177Lu]21 (50 μCi, 10 μL) was added to PBS (90 μL) or murine serum (90 μL) and the mixture was incubated at 37 °C for a certain time ([^18F]21: 2 h, [^177Lu]21: 8 d). The PBS mixture was injected directly into the radio-HPLC for analysis. The murine serum was precipitated with 0.1 mL of acetonitrile and centrifuged (10,000 rpm, 5 min). The supernatant was measured and analyzed by the radio-HPLC to determine the stability. For in vivo stability study, the radio tracers were injected into the tail vein of ICR mice and samples of blood were collected after a certain time post injection (pi) ([^18F]21: 4 h, [^177Lu]21: 9 h). The plasma proteins were precipitated using an equal volume of acetonitrile and centrifuged (10,000 rpm, 5 min). The RCP of radio tracer in supernatants were analyzed and quantified by radio-HPLC. The radio-HPLC method was as follows: A: 0.1% TFA in H2O, B: ACN, 0–10 min, 0–100% B. The flow rate was 1 mL/min, and the C18 column (4.6 × 150 mm, 5 μm, ZORBAX, Agilent) was used. When using HPLC to assess the stability of [^177Lu]21, the effluent was collected every 30 s due to its less radioactivity, and samples were measured by an automatic γ-counter (2480 Wizard2, Perkin Elmer). The counted samples were plotted as intensity (cpm) against fraction.

[2] = in vivo stability in ICR mice, blood samples (radio-HPLC)
Method: as §1

HT-1080-FAP cells [3] = experiment: cell uptake in HT-1080-FAP cells; type: cell-based, human
Method: (§2) The human fibrosarcoma cell lines HT-1080 and HT-1080-FAP transferred with human FAP gene were both cultured in Dulbecco modified Eagle medium supplemented with 10% fetal bovine serum (Gibco, USA) at 37℃/5% carbon dioxide. For cell uptake experiments, HT-1080-FAP cells (~ 1 × 10^5/well) or HT-1080 (~ 1 × 10^5/well) were seeded in 24-well plates for 24–48 h and incubated at 37℃ with radiolabeled compounds (74 kBq/well) in 0.5 mL of serum-free medium for indicated times. Non-specific binding was determined by co-incubating with 100 μM FAP inhibitor UAMC1110. For competitive FAP binding assays, HT-1080-FAP cells were incubated with [^177Lu]Lu-FAPI-04 (74 kBq/well) in the presence of different concentrations (10^−3–10^4 nM) of competing non-radioactive ligands. For internalization experiments, the radiotracer-incubated cells were washed twice with PBS (pH 7.4), followed by glycine–HCl (0,05 M, pH = 2.8) solution to distinguish between cell surface–bound (acid-releasable) and internalized (acid-resistant) radioligand. For efflux experiments, cells were preincubated with [^177Lu]21 or [^177Lu]Lu-FAPI-04 for 1 h and subsequently incubated at 37 °C in a medium free of radiotracer and serum for different time periods. The medium was removed and the cells were washed twice with cold PBS (pH 7.4) and subsequently lysed with 0.5 mL of NaOH (1 M). Cell lysates were collected and the radioactivity was determined using a γ-counter.

HT-1080 cells = experiment: cell uptake in HT-1080 (FAP negative) cells; type: cell-based, human
Method: as §2, with “The medium was removed and the cells were washed twice with cold PBS (pH 7.4) and subsequently lysed with 0.5 mL of NaOH (1 M).” left out

HT-1080-FAP cells [4] = experiment: internalization experiments in HT-1080-FAP cells; type: cell-based, human; conditions: 10 min
Method: as §2, with “The medium was removed and the cells were washed twice with cold PBS (pH 7.4) and subsequently lysed with 0.5 mL of NaOH (1 M).” left out

HT-1080-FAP xenograft = experiment: micro-PET/CT imaging, HT-1080-FAP xenograft; type: in vivo, BALB/C-nu/nu mice
Method: (§3) All animal experiments were conducted in compliance with a protocol approved by the First Affiliated Hospital of Sun Yat-sen University Institutional Animal Care and Use Committee. BALB/C-nu/nu mice (4–5-week old with body weight of 16–22 g) were purchased from GemPharmatech Co., Ltd. Mice were housed under standard conditions with temperature and light control (12-h-light/12-h-dark cycle) and had free access to water and food. For the tumor model, HT-1080-FAP or HT-1080 cells (5 × 10^6) were subcutaneously injected into the right or left flank of nude mice, respectively. As the tumor diameter reached 3–4 mm, mice were treated with radioligands. Micro-PET and SPECT imaging studies, as well as biodistribution, were conducted when the tumor diameter reached 5–10 mm.
(§4) The dynamic micro-PET/CT (Siemens Inveon) imaging studies were conducted to evaluate the pharmacokinetics. The HT-1080-FAP and HT-1080 tumor-bearing mice were injected with 3.7–7.4 MBq of [^18F]21 or [^68 Ga]Ga-FAPI-04 via tail vein. […] Dynamic PET scans were performed from 0 to 120 min with image reconstruction of every 5 min. Micro-PET imaging was reconstructed using a three-dimensional ordered-subset expectation maximum (OSEM) algorithm (Siemens, Erlangen, Germany). The images and regions of interest (ROIs) were produced using Inveon Research Workplace (Siemens, Erlangen, Germany).

HT-1080 xenograft = experiment: micro-PET/CT imaging, FAP-negative HT-1080 xenograft; type: in vivo, BALB/C-nu/nu mice; conditions: dynamic PET 0-120 min
Method: as §3, §4

[5] = 60 min pi, FAPI-04 25 μg/animal co-injected

## CC(C)(C)[Si](F)(c1ccc(C(=O)NCC(NC(=O)CCC(C(=O)O)N2CCN(CC(=O)[O-])CCN(CC(=O)[O-])CCN(CC(=O)[O-])CC2)C(=O)NCC2CCC(C(=O)NCCCOc3ccc4nccc(C(=O)NCC(=O)N5CC(F)(F)CC5C#N)c4c3)CC2)cc1)C(C)(C)C.[Lu+3] (stereo not drawn) [Compound 21]
FAP; HT-1080-FAP cells, competition with [^177Lu]Lu-FAPI-04, read-out: IC50 (binding affinity towards FAP)
  IC50: 2.53 ± 1.87 nM

## CC(C)(C)[Si](F)(c1ccc(C(=O)NC[C@H](NC(=O)CCC(C(=O)O)N2CCN(CC(=O)O)CCN(CC(=O)O)CCN(CC(=O)O)CC2)C(=O)NC[C@H]2CC[C@H](C(=O)NCCCOc3ccc4nccc(C(=O)NCC(=O)N5CC(F)(F)C[C@H]5C#N)c4c3)CC2)cc1)C(C)(C)C (stereo partly drawn) [Compound 20]
FAP
  IC50: 2.29 ± 1.12 nM
HT-1080-FAP tumor slide
  blocking of [^18F]21 autoradiography signal: could be blocked by unlabeled 20

## CC(C)(C)[Si]([18F])(c1ccc(C(=O)NCC(NC(=O)CCC(C(=O)O)N2CCN(CC(=O)[O-])CCN(CC(=O)[O-])CCN(CC(=O)[O-])CC2)C(=O)NCC2CCC(C(=O)NCCCOc3ccc4nccc(C(=O)NCC(=O)N5CC(F)(F)CC5C#N)c4c3)CC2)cc1)C(C)(C)C.[Lu+3] (stereo not drawn) [[^18F]21]
[1]; 37 °C, PBS or murine serum
  time stable in vitro: at least 2 h
[1]; as summarised in discussion
  in vitro stability: > 90%
[2]; ICR mice, within 4 h pi
  metabolization in blood samples (radio-HPLC): little evidence of any metabolization
[2]; as summarised in discussion
  in vivo stability: > 90%
HT-1080-FAP cells [3]; 10 min incubation
  cell uptake: 60.18% ± 3.84
HT-1080-FAP cells [3]; 1 h incubation
  cell uptake: 86.43% ± 5.47 and 86.43% ± 5.46
HT-1080-FAP cells [3]; co-incubation with 100 μM FAP inhibitor UAMC1110
  cell uptake with competitor: could be blocked by FAP inhibitor; also recorded: could be blocked by UAMC1110
HT-1080 cells
  cell uptake in FAP negative cells: Almost no uptakes
HT-1080-FAP cells [4]
  internalization rate: > 80%
HT-1080-FAP xenograft; 60 min pi
  tumor uptake (PET ROI), without competitor: 14.13 ± 3.19 %ID/g
HT-1080-FAP xenograft; [5]
  tumor uptake (PET ROI), blocking with FAPI-04: 3.8 ± 0.89 %ID/g
  uptake in joints, blocking with FAPI-04: blocked significantly
HT-1080-FAP xenograft; 2 h pi
  fold higher tumor uptake than [^68 Ga]Ga-FAPI-04: 14.9 fold
HT-1080-FAP xenograft; 2 h pi, dynamic PET
  HT-1080-FAP tumor uptake (PET): 10.04 %ID/g
HT-1080 xenograft
  FAP-negative HT-1080 tumor uptake (PET): did not show any uptakes
